In patent US20020183297A1, “Pharmaceutical composition for the treatment of alopecia” (priority 2001, published 2002):

What was measured:
[1] = system: hair growth on scalp of subjects with baldness / hair loss; assay: compositions tested in humans (topical application to scalp); type: in vivo, human; conditions: summary statement; animals and humans / applied directly to scalp
Protocol: The composition is applied to scalp ideally after thoroughly cleansing hair with soap and water to remove as much sebaceous secretions as possible. Sufficient quantity of the composition is applied to balding areas of scalp repeatedly, 1-2 times per day and applications continued for several days or weeks. It may be necessary, as it has been observed, to repeat the application frequently to keep the new follicular growth and to initiate further growth.
Finally, the compositions were tested in humans. Ten subjects with advanced male pattern baldness used test preparation #1 and #2 (five subjects each) as described above for a period of three weeks. […] Three female subjects with thinning hair used composition #3 and #4 for a period of five weeks daily.

stem cells = assay: tritiated thymidine labeling of stem cells (murine skin explants; label retaining cells in mice); type: cell-based, mouse
Description: The effectiveness of stimulant of stem cells can be readily evaluated using the technique of tritiated thymidine labeling. We studied the effectiveness of the invention on stimulation of stem cell populations by using the technique of tritiated thymidine labeling of stem cells. The effects of compositions described here were studied on explants of murine skin. Explant cultures were serially harvested at daily intervals for the first 4 days of exposure, and composition effects on ^3H-TdR (tritiated thymidine) incorporation assessed in accordance with standard techniques. Because of the slow- cycling nature of stem cells, repeated administration of tritiated thymidine is necessary. After the labeling, the cells are chased for four weeks wherein the stem cells retain the label longer and are thus quantitated comparatively to control.
In another series of experiments, a cohort of mice was continuously labeled for 2 weeks with ^3H- TdR and then allowed to rest for 4 weeks. Once labeled, cells that cycle slowly retained isotopes for an extended period of time. Twice daily, subcutaneous injections of ^3H-TdR were given to newborn mice over the first seven days of life resulting in the labeling of almost 100% of nuclei in mouse epidermis, hair follicles, sebaceous glands, fibroblasts, and endothelial cells. […]

For `CC[C@H](CC[C@@H](C)[C@H]1CC[C@H]2[C@@H]3CC=C4C[C@@H](O)CC[C@]4(C)[C@H]3CC[C@]12C)C(C)C` [β-sitosterol], the growth of hair [1] was “enhance growth of hair” and the “activity of stem cells and/or bulge cells responsible for growth of hair” value (stem cells) was “significantly enhances”.
